The target in one assay is T1, TYK2 JH2 (Homo sapiens, UniProt P29597).
T1 construct: purchased DiscoverX (KINOMEscan KdELECT service); host or cells: E. coli BL21-derived (T7 phage display) or HEK-293
In words: TYK2 JH2 binding assay (KINOMEscan KdELECT competitive binding). The settings on record: TYK2 JH2 domain, KINOMEscan KdELECT (Assay A); read-out: Biochemical TYK2_JH2_Kd. In a few lines: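 JH2-domain fragment, expressed as T7 phage tag in BL21-derived E. coli or DNA-tagged from HEK-293, competed with test compound against bead-immobilized biotinylated ligand in binding buffer (0.9% DMSO). 1 h shaking at room temperature; bound kinase eluted with 0.5 μM free ligand and quantified by qPCR. Kd from 11-point 3-fold dilutions.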

Assay [1] has as its system JAK1/TYK2 pSTAT5 (Tyr694/699) in THP-1 cell line. Put plainly: IFNa-stimulated JAK1/TYK2 pSTAT5 (Tyr694/699) inhibition cellular assay, AlphaLISA. In kind it is cell-based. The settings on record: Homo sapiens; THP-1 cells, IFNa-stimulated, AlphaLISA (Assay B); read-out: Cellular THP1_IFNa-pSTATS_IC50. In a few lines: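 Compound dilutions were dispensed first, and HBSS-suspended THP-1 cells were added on top (final top concentration 10000 nM, 6-fold series). After 1 h at 37 °C, IFNa (100 ng/mL as added) was applied for 30 min. Cells were then lysed and pSTAT5 was quantified by AlphaLISA.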
For orientation: Alpha assays give light when donor and acceptor beads are brought close together.

T1 sequence (P29597 589-875 limits assumed): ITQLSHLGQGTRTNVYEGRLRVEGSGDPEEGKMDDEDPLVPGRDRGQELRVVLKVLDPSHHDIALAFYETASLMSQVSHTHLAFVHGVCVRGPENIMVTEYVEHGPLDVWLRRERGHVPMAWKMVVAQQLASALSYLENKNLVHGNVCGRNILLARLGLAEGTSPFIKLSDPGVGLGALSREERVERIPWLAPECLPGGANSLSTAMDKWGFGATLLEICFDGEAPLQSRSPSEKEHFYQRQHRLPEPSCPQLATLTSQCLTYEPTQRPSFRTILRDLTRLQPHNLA

For the compound `CNc1ncc(-c2cc(C)ns2)c2cc(NC(=O)C3CC3)ncc12` [Example 138, N-(8-(methylamino)-5-(3-methylisothiazol-5-yl)-2,7-naphthyridin-3-yl)cyclopropanecarboxamide], the Kd on TYK2 JH2 was no more than 100 nM. In addition, the IC50 in assay [1] is greater than 500 nM.

`CNc1ncc(-c2nc3ccccc3[nH]2)c2cc(NC(=O)C3CC3)ncc12` [Example 139, N-(5-(1H-benzo[d]imidazol-2-yl)-8-(methylamino)-2,7-naphthyridin-3-yl)cyclopropanecarboxamide]: the Kd at TYK2 JH2 is no more than 100 nM. In addition, the IC50 in assay [1] is greater than 500 nM.

In the case of `CNc1ncc(-c2nc(C)c[nH]2)c2cc(NC(=O)C3CC3)ncc12` [Example 140, N-(5-(4-methyl-1H-imidazol-2-yl)-8-(methylamino)-2,7-naphthyridin-3-yl)cyclopropanecarboxamide], the Kd on TYK2 JH2 was no more than 100 nM. The IC50 in assay [1] was greater than 500 nM.

Turning to `CNc1ncc(-c2ncn(C)n2)c2cc(NC(=O)C3CC3)ncc12` [Example 141, N-(S-(1-methyl-1H-1,2,4-triazol-3-yl)-8-(methylamino)-2,7-naphthyridin-3-yl)cyclopropanecarboxamide], the Kd at TYK2 JH2 was no more than 100 nM. For the same compound, in assay [1], the IC50 was greater than 500 nM.

For the compound `CNc1ncc(-c2nc3ccccc3o2)c2cc(NC(=O)C3CC3)ncc12` [Example 142, N-(5-(benzo[d]oxazol-2-yl)-8-(methylamino)-2,7-naphthyridin-3-yl)cyclopropanecarboxamide], the Kd at TYK2 JH2 is no more than 100 nM. In assay [1], the IC50 is no more than 500 nM.

On to `CNc1ncc(-c2ccc(C)o2)c2cc(NC(=O)C3CC3)ncc12` [Example 143, N-(8-(methylamino)-5-(5-methylfuran-2-yl)-2,7-naphthyridin-3-yl)cyclopropanecarboxamide], for which the Kd at TYK2 JH2 was no more than 100 nM. In addition, the IC50 in assay [1] was no more than 500 nM.

Consider `CNc1ncc(-c2ccc(C(=O)C3CC3)cc2)c2cc(NC(=O)C3CC3)ncc12` [Example 144, N-(5-(4-(cyclopropanecarbonyl)phenyl)-8-(methylamino)-2,7-naphthyridin-3-yl)cyclopropanecarboxamide], for which the Kd on TYK2 JH2 is no more than 100 nM. In assay [1], the IC50 was greater than 500 nM.

In the case of `CNc1ncc(-c2nc3ccccc3s2)c2cc(NC(=O)C3CC3)ncc12` [Example 145, N-(5-(benzo[d]thiazol-2-yl)-8-(methylamino)-2,7-naphthyridin-3-yl)cyclopropanecarboxamide], the Kd on TYK2 JH2 was no more than 100 nM. The IC50 in assay [1] is no more than 500 nM.

`CCn1ccc(-c2cnc(NC)c3cnc(NC(=O)C4CC4)cc23)n1` [Example 147, N-(5-(1-ethyl-1H-pyrazol-3-yl)-8-(methylamino)-2,7-naphthyridin-3-yl)cyclopropanecarboxamide]: on TYK2 JH2, the Kd was no more than 100 nM. For the same compound, the IC50 in assay [1] is no more than 500 nM.

As for `CNc1ncc(-c2ccn(C(C)C)n2)c2cc(NC(=O)C3CC3)ncc12` [Example 148, N-(5-(1-isopropyl-1H-pyrazol-3-yl)-8-(methylamino)-2,7-naphthyridin-3-yl)cyclopropanecarboxamide], the Kd at TYK2 JH2 was no more than 100 nM. The IC50 in assay [1] was no more than 500 nM.

With `CNc1ncc(-c2ccn(CC(C)C)n2)c2cc(NC(=O)C3CC3)ncc12` [Example 149, N-(5-(1-isobutyl-1H-pyrazol-3-yl)-8-(methylamino)-2,7-naphthyridin-3-yl)cyclopropanecarboxamide], the Kd on TYK2 JH2 is no more than 100 nM. Besides, in assay [1], the IC50 is greater than 500 nM.

On to `CNc1ncc(-c2ccn(Cc3ncn(C)n3)n2)c2cc(NC(=O)C3CC3)ncc12` [Example 150, N-(5-(1-((1-methyl-1H-1,2,4-triazol-3-yl)methyl)-1H-pyrazol-3-yl)-8-(methylamino)-2,7-naphthyridin-3-yl)cyclopropanecarboxamide], for which the Kd at TYK2 JH2 is no more than 100 nM. The IC50 in assay [1] was greater than 500 nM.

Consider `CNc1ncc(-c2ccn(Cc3nccs3)n2)c2cc(NC(=O)C3CC3)ncc12` [Example 151, N-(8-(methylamino)-5-(1-(thiazol-2-ylmethyl)-1H-pyrazol-3-yl)-2,7-naphthyridin-3-yl)cyclopropanecarboxamide], for which the Kd at TYK2 JH2 is no more than 100 nM. Moreover, the IC50 in assay [1] is greater than 500 nM.

Take `CNc1ncc(-c2ccn(Cc3noc(C)n3)n2)c2cc(NC(=O)C3CC3)ncc12` [Example 152, N-(5-(1-((5-methyl-1,2,4-oxadiazol-3-yl)methyl)-1H-pyrazol-3-yl)-8-(methylamino)-2,7-naphthyridin-3-yl)cyclopropanecarboxamide]: the Kd on TYK2 JH2 is no more than 100 nM. In addition, in assay [1], the IC50 is greater than 500 nM.

On to `CNc1ncc(-c2ccn(CC3CCSCC3)n2)c2cc(NC(=O)C3CC3)ncc12` [Example 153A, N-(8-(methylamino)-5-(1-((tetrahydro-2H-thiopyran-4-yl)methyl)-1H-pyrazol-3-yl)-2,7-naphthyridin-3-yl)cyclopropanecarboxamide], for which, on TYK2 JH2, the Kd is no more than 100 nM. Also, the IC50 in assay [1] is greater than 500 nM.

`CNc1ncc(-c2ccn(CC3CCS(=O)(=O)CC3)n2)c2cc(NC(=O)C3CC3)ncc12` [Example 153B, N-(5-(1-((1,1-dioxidotetrahydro-2H-thiopyran-4-yl)methyl)-1H-pyrazol-3-yl)-8-(methylamino)-2,7-naphthyridin-3-yl)cyclopropanecarboxamide]: the Kd on TYK2 JH2 was no more than 100 nM. For the same compound, the IC50 in assay [1] was greater than 500 nM.

Regarding `CNc1ncc(-c2ccn(Cc3ccccn3)n2)c2cc(NC(=O)C3CC3)ncc12` [Example 154, N-(8-(methylamino)-5-(1-(pyridin-2-ylmethyl)-1H-pyrazol-3-yl)-2,7-naphthyridin-3-yl)cyclopropanecarboxamide], the Kd on TYK2 JH2 was no more than 100 nM. Further, in assay [1], the IC50 is greater than 500 nM.

For the compound `CNc1ncc(-c2nc3ccccn3n2)c2cc(NC(=O)C3CC3)ncc12` [Example 155, N-(5-([1,2,4]triazolo[1,5-a]pyridin-2-yl)-8-(methylamino)-2,7-naphthyridin-3-yl)cyclopropanecarboxamide], on TYK2 JH2, the Kd is no more than 100 nM. Besides, in assay [1], the IC50 is no more than 500 nM.

Take `CNc1ncc(-c2ccn3nc(N4CCC4)nc3c2)c2cc(NC(=O)C3CC3)ncc12` [Example 156, N-(5-(2-(azetidin-1-yl)-[1,2,4]triazolo[1,5-a]pyridin-7-yl)-8-(methylamino)-2,7-naphthyridin-3-yl)cyclopropanecarboxamide]: the Kd at TYK2 JH2 is no more than 100 nM. In assay [1], the IC50 is greater than 500 nM.

Consider `CNc1ncc(-c2nc(-c3ccccc3)co2)c2cc(NC(=O)C3CC3)ncc12` [Example 157, N-(8-(methylamino)-5-(4-phenyloxazol-2-yl)-2,7-naphthyridin-3-yl)cyclopropanecarboxamide], for which the Kd on TYK2 JH2 was no more than 100 nM. Also, the IC50 in assay [1] is no more than 500 nM.

Take `O=C(Nc1cc2c(-c3ccccc3)cnc(NCCO)c2cn1)C1CC1` [Example 160, N-(8-((2-hydroxyethyl)amino)-5-phenyl-2,7-naphthyridin-3-yl)cyclopropanecarboxamide]: the Kd on TYK2 JH2 is no more than 100 nM. Also, the IC50 in assay [1] is greater than 500 nM.

With `CNc1ncc(-c2ccccc2)c2cc(NC(=O)C3(F)CC3)ncc12` [Example 161, 1-fluoro-N-(8-(methylamino)-5-phenyl-2,7-naphthyridin-3-yl)cyclopropane-1-carboxamide], the Kd on TYK2 JH2 was no more than 100 nM. Besides, the IC50 in assay [1] is greater than 500 nM.

For the compound `CNc1ncc(-c2ccccc2)c2cc(NC(C)C)ncc12` [Example 162, N^6-isopropyl-N^1-methyl-4-phenyl-2,7-naphthyridine-1,6-diamine], the Kd at TYK2 JH2 was 100 to 1000 nM. The IC50 in assay [1] is greater than 500 nM.

In the case of `CNc1nc(C)cc2cc(NC(=O)C3CC3)ncc12` [Example 163, N-(6-methyl-8-(methylamino)-2,7-naphthyridin-3-yl)cyclopropanecarboxamide], the Kd at TYK2 JH2 is 100 to 1000 nM. Moreover, the IC50 in assay [1] was greater than 500 nM.

With `C=Cc1cc2cc(NC(=O)C3CC3)ncc2c(NC)n1` [Example 164, N-(8-(methylamino)-6-vinyl-2,7-naphthyridin-3-yl)cyclopropanecarboxamide], the Kd on TYK2 JH2 was in the range of 100 to 1000 nM. In addition, the IC50 in assay [1] was greater than 500 nM.

Turning to `CCc1cc2cc(NC(=O)C3CC3)ncc2c(NC)n1` [Example 165, N-(6-ethyl-8-(methylamino)-2,7-naphthyridin-3-yl)cyclopropanecarboxamide], the Kd on TYK2 JH2 is no more than 100 nM. The IC50 in assay [1] is greater than 500 nM.

Take `CNc1ncc(-c2ccc(-n3cccn3)cc2)c2cc(NC(=O)C3CC3)ncc12` [Example 166, N-(5-(4-(1H-pyrazol-1-yl)phenyl)-8-(methylamino)-2,7-naphthyridin-3-yl)cyclopropanecarboxamide]: at TYK2 JH2, the Kd was no more than 100 nM. For the same compound, the IC50 in assay [1] was greater than 500 nM.

As for `CNc1ncc(/C=C/c2cccc(OC)c2)c2cc(NC(=O)C3CC3)ncc12` [Example 167, (E)-N-(5-(3-methoxystyryl)-8-(methylamino)-2,7-naphthyridin-3-yl)cyclopropanecarboxamide], the Kd on TYK2 JH2 was no more than 100 nM. Moreover, in assay [1], the IC50 was no more than 500 nM.

Consider `CNc1ncc(-c2cccc(COC)c2)c2cc(NC(=O)C3CC3)ncc12` [Example 168, N-(5-(3-(methoxymethyl)phenyl)-8-(methylamino)-2,7-naphthyridin-3-yl)cyclopropanecarboxamide], for which, at TYK2 JH2, the Kd was no more than 100 nM. Moreover, the IC50 in assay [1] was greater than 500 nM.

Turning to `CNc1ncc(-c2ccc(COC)cc2)c2cc(NC(=O)C3CC3)ncc12` [Example 169, N-(5-(4-(methoxymethyl)phenyl)-8-(methylamino)-2,7-naphthyridin-3-yl)cyclopropanecarboxamide], the Kd at TYK2 JH2 is no more than 100 nM. The IC50 in assay [1] is greater than 500 nM.

The values above are taken from patent US20240025906A1 (NEURON23, INC., priority 2022, published 2024).
